Species on record: Rattus norvegicus
Type: toxicity, organism-based, Sprague-Dawley
Settings: in vivo, po, route oral GAVAGE, vehicle 100 % SALINE; for ABSOLUTE EOSINOPHIL / ABSOLUTE LYMPHOCYTE / ABSOLUTE MONOCYTE / ABSOLUTE SEGMENTED NEUTROPHIL / BASOPHIL / EOSINOPHIL / ERYTHROCYTE COUNT / HEMATOCRIT / HEMOGLOBIN / LEUKOCYTE COUNT / LYMPHOCYTE / MEAN CORPUSCULAR HEMOGLOBIN / MEAN CORPUSCULAR HEMOGLOBIN CONCENTRATION / MEAN CORPUSCULAR VOLUME / MONOCYTE / NEUTROPHIL / NUCLEATED RED BLOOD CELLS / PLATELET COUNT: tissue Blood; for ALANINE AMINOTRANSFERASE / ALBUMIN / ALKALINE PHOSPHATASE / ASPARTATE AMINOTRANSFERASE / BLOOD UREA NITROGEN / CARBON DIOXIDE / CHLORIDE / CHOLESTEROL / CREATINE PHOSPHOKINASE / CREATININE / GLUCOSE / LACTATE DEHYDROGENASE / LIPASE / PHOSPHORUS / POTASSIUM / SODIUM / TOTAL BILIRUBIN / TOTAL PROTEIN / URIC ACID: tissue Plasma
[1] = 0 mg/kg, 6 h, dose level Control, time 0.25 day
[2] = 0 mg/kg, 24 h, dose level Control, time 1 day
[3] = 3000 mg/kg, 6 h, dose level Low, time 0.25 day

Description: DrugMatrix - Regimen: Single

Compound: CCO [ALCOHOL]
- ABSOLUTE EOSINOPHIL [1]: 24 CELLS/uL
- ABSOLUTE LYMPHOCYTE [1]: 11958.17 CELLS/uL
- ABSOLUTE MONOCYTE [1]: 398.83 CELLS/uL
- ABSOLUTE SEGMENTED NEUTROPHIL [1]: 1252.33 CELLS/uL
- BASOPHIL [1]: 0%
- EOSINOPHIL [1]: 0.17%
- ERYTHROCYTE COUNT [1]: 5.37 x10E6/uL
- HEMATOCRIT [1]: 35.6%
- HEMOGLOBIN [1]: 13.05 G/DL
- LEUKOCYTE COUNT [1]: 13.63 x10E3/uL
- LYMPHOCYTE [1]: 87.67%
- MEAN CORPUSCULAR HEMOGLOBIN [1]: 24.28 pg
- MEAN CORPUSCULAR HEMOGLOBIN CONCENTRATION [1]: 36.67 G/DL
- MEAN CORPUSCULAR VOLUME [1]: 66.28 fL
- MONOCYTE [1]: 2.83%
- NEUTROPHIL [1]: 9.33%
- NUCLEATED RED BLOOD CELLS [1]: 0 /100WBC
- PLATELET COUNT [1]: 947.83 x10E3/uL
- ALANINE AMINOTRANSFERASE [1]: 51 u/L
- ALBUMIN [1]: 4.02 G/DL
- ALKALINE PHOSPHATASE [1]: 312.33 u/L
- ASPARTATE AMINOTRANSFERASE [1]: 98.17 u/L
- BLOOD UREA NITROGEN [1]: 9.5 mg/dL
- CARBON DIOXIDE [1]: 18.83 mmol/L
- CHLORIDE [1]: 103.5 MEQ/L
- CHOLESTEROL [1]: 69.5 mg/dL
- CREATINE PHOSPHOKINASE [1]: 580.17 u/L
- CREATININE [1]: 0.53 mg/dL
- GLUCOSE [1]: 175.67 mg/dL
- LACTATE DEHYDROGENASE [1]: 295.5 u/L
- LIPASE [1]: 8.17 u/L
- PHOSPHORUS [1]: 14.12 mg/dL
- POTASSIUM [1]: 5.77 MEQ/L
- SODIUM [1]: 144.13 MEQ/L
- TOTAL BILIRUBIN [1]: 0.12 mg/dL
- TOTAL PROTEIN [1]: 4.87 G/DL
- URIC ACID [1]: 2.25 mg/dL
- ABSOLUTE EOSINOPHIL [2]: 0 CELLS/uL
- ABSOLUTE LYMPHOCYTE [2]: 12232.83 CELLS/uL
- ABSOLUTE MONOCYTE [2]: 20.33 CELLS/uL
- ABSOLUTE SEGMENTED NEUTROPHIL [2]: 780.17 CELLS/uL
- BASOPHIL [2]: 0%
- EOSINOPHIL [2]: 0%
- ERYTHROCYTE COUNT [2]: 5.18 x10E6/uL
- HEMATOCRIT [2]: 33.48%
- HEMOGLOBIN [2]: 13.22 G/DL
- LEUKOCYTE COUNT [2]: 13.03 x10E3/uL
- LYMPHOCYTE [2]: 93.33%
- MEAN CORPUSCULAR HEMOGLOBIN [2]: 25.57 pg
- MEAN CORPUSCULAR HEMOGLOBIN CONCENTRATION [2]: 39.52 G/DL
- MEAN CORPUSCULAR VOLUME [2]: 64.65 fL
- MONOCYTE [2]: 0.17%
- NEUTROPHIL [2]: 6.5%
- NUCLEATED RED BLOOD CELLS [2]: 0 /100WBC
- PLATELET COUNT [2]: 931.5 x10E3/uL
- ALANINE AMINOTRANSFERASE [2]: 60.83 u/L
- ALBUMIN [2]: 4.18 G/DL
- ALKALINE PHOSPHATASE [2]: 283.33 u/L
- ASPARTATE AMINOTRANSFERASE [2]: 80.5 u/L
- BLOOD UREA NITROGEN [2]: 11.83 mg/dL
- CARBON DIOXIDE [2]: 35.33 mmol/L
- CHLORIDE [2]: 98.5 MEQ/L
- CHOLESTEROL [2]: 80 mg/dL
- CREATINE PHOSPHOKINASE [2]: 181.83 u/L
- CREATININE [2]: 0.2 mg/dL
- GLUCOSE [2]: 142.67 mg/dL
- LACTATE DEHYDROGENASE [2]: 65.5 u/L
- LIPASE [2]: 9.83 u/L
- PHOSPHORUS [2]: 9.82 mg/dL
- POTASSIUM [2]: 5.69 MEQ/L
- SODIUM [2]: 143.35 MEQ/L
- TOTAL BILIRUBIN [2]: 0.15 mg/dL
- TOTAL PROTEIN [2]: 6.2 G/DL
- URIC ACID [2]: 0.42 mg/dL
- ABSOLUTE EOSINOPHIL [3]: 17.33 CELLS/uL
- ABSOLUTE LYMPHOCYTE [3]: 12297.17 CELLS/uL
- ABSOLUTE MONOCYTE [3]: 395.33 CELLS/uL
- ABSOLUTE SEGMENTED NEUTROPHIL [3]: 1356.83 CELLS/uL
- BASOPHIL [3]: 0%
- EOSINOPHIL [3]: 0.17%
- ERYTHROCYTE COUNT [3]: 5.49 x10E6/uL
- HEMATOCRIT [3]: 36.33%
- HEMOGLOBIN [3]: 13.27 G/DL
- LEUKOCYTE COUNT [3]: 14.07 x10E3/uL
- LYMPHOCYTE [3]: 87%
- MEAN CORPUSCULAR HEMOGLOBIN [3]: 24.23 pg
- MEAN CORPUSCULAR HEMOGLOBIN CONCENTRATION [3]: 36.55 G/DL
- MEAN CORPUSCULAR VOLUME [3]: 66.38 fL
- MONOCYTE [3]: 2.67%
- NEUTROPHIL [3]: 10.17%
- NUCLEATED RED BLOOD CELLS [3]: 0 /100WBC
- PLATELET COUNT [3]: 1109.83 x10E3/uL
- ALANINE AMINOTRANSFERASE [3]: 45.5 u/L
- ALBUMIN [3]: 4.27 G/DL
- ALKALINE PHOSPHATASE [3]: 279.17 u/L
- ASPARTATE AMINOTRANSFERASE [3]: 96.17 u/L
- BLOOD UREA NITROGEN [3]: 11 mg/dL
- CARBON DIOXIDE [3]: 19.5 mmol/L
- CHLORIDE [3]: 105.33 MEQ/L
- CHOLESTEROL [3]: 63.33 mg/dL
- CREATINE PHOSPHOKINASE [3]: 339.67 u/L
- CREATININE [3]: 0.17 mg/dL
- GLUCOSE [3]: 173 mg/dL
- LACTATE DEHYDROGENASE [3]: 354.67 u/L
- LIPASE [3]: 10 u/L
- PHOSPHORUS [3]: 15.83 mg/dL
- POTASSIUM [3]: 6.29 MEQ/L
- SODIUM [3]: 146.3 MEQ/L
- TOTAL BILIRUBIN [3]: 0.0667 mg/dL
- TOTAL PROTEIN [3]: 5.62 G/DL
- URIC ACID [3]: 2.12 mg/dL
